The structures appear in SMILES notation.

This is an account of results in patent publication US10258039B2, “Substituted pyrazolylpyrazole derivative and use of same as herbicide” (KYOYU AGRI CO., LTD., priority 2015, dated 2019).

What all share (assay type): in vivo
Data set [1] deals with Digitaria ciliaris. Put plainly: Weed foliar treatment test (Test 4, 4.0 to 5.0 leaf stage). Conditions: 10g a.i./10a; foliar spray at 4.0 to 5.0 leaf stage of Digitaria ciliaris (plant height 10 cm to 15 cm); 20 days, 25° C. The protocol:
(§1) 4. Weed Foliar Treatment Test
(§2) Field soil was filled into a 1/4500 are pot followed by seeding with Digitaria ciliaris and Galinsoga parviflora, covering with soil and cultivating in a glass greenhouse at an average atmospheric temperature of 25° C.
(§3) Wettable powders of Target Compound (I) shown in Table 1 prepared in compliance with the preparation examples were diluted with water to the prescribed amount of chemical and uniformly sprayed onto the weeds using 100 liters of sprayed water per 10 are when Digitaria ciliaris had grown to the 4.0 to 5.0 leaf stage (plant height: 10 cm to 15 cm).
(§4) After treating for 20 days in a glass greenhouse at an average atmospheric temperature of 25° C., the herbicidal efficacy thereof was investigated.
(§5) Evaluation of herbicidal efficacy was carried out in the same manner as the above-mentioned Test Example 1.

The subject of another data set is Galinsoga parviflora. The data set is described as above. Conditions: 10g a.i./10a; foliar spray at 4.0 to 5.0 leaf stage of Digitaria ciliaris; 20 days, 25° C. The protocol:
as §1, §2, §3, §4, §5

For the next data set, the system named is Echinochloa crus-galli. Put plainly: Paddy herbicidal activity test. Conditions: irrigated paddy pot, treated at 3.5 leaf stage of Echinochloa crus-galli, 30 days, 30° C. As to the method: (§6) 1. Paddy Herbicidal Activity Test
(§7) Rice paddy soil was filled into a 1/10000 are pot followed by the addition of suitable amounts of water and chemical fertilizer, kneading, seeding with Echinochloa crus-galli, Monochoria vaginalis and Scirpus juncoides and maintaining in an irrigated state at a water depth of 3 cm.
(§8) Wettable powders of Target Compound (I) shown in. Table 1 prepared in compliance with the preparation examples were diluted with a suitable amount of water, rice plants in the 2.0 leaf stage were transplanted during 3.5 leaf stage of Echinochloa crus-galli, and treated by dropping in chemical in the prescribed amount per 10 are using a pipette.
(§9) After treating for 30 days in a glass greenhouse at an average atmospheric temperature of 30° C., the herbicidal efficacy thereof was investigated.
(§10) Evaluation of herbicidal efficacy was carried out by comparing growth inhibition rate (%) with an untreated group, while evaluation of phytotoxicity was carried out by comparing growth inhibition rate (%) with the state of a complete eradication group, and were evaluated at 11 levels indicated below.

The subject of a further data set is Monochoria vaginalis. Nature of the data set: Paddy herbicidal activity test. Conditions: irrigated paddy pot, 30 days, 30° C. As to the method:
as §6, §7, §8, §9, §10

The test system of a further data set is Scirpus juncoides. Nature of the data set: Paddy herbicidal activity test. Conditions: irrigated paddy pot, 30 days, 30° C. As to the method: as §6, §7, §8, §9, §10
The next data set concerns Oryza sativa. Put plainly: Paddy herbicidal activity test, phytotoxicity to transplanted rice. Conditions: rice transplanted at 2.0 leaf stage, 30 days, 30° C. As to the method: as §6, §7, §8, §9, §10
Data set [2] deals with Amaranthus retroflexus. Put plainly: Farming soil treatment test. Conditions: soil surface spray prior to weed growth, 30 days, 30° C. As to the method: (§11) 2. Farming Soil Treatment Test
(§12) Field soil was filled into a 1/6000 are pot followed by seeding with Digitaria ciliaris, Chenopodium album and Amaranthus retroflexus and covering with soil.
(§13) Wettable powders of compounds of formula (I) shown in Table 1 prepared in compliance with the preparation examples were diluted with water to the prescribed amount of chemical and uniformly sprayed onto each soil surface layer using 100 liters of sprayed water per 10 are prior to weed growth following seeding.
as §9, §5

The test system of data set [3] is Chenopodium album. Put plainly: Farming soil treatment test. Conditions: soil surface spray prior to weed growth, 30 days, 30° C. As to the method: as §11, §12, §13, §9, §5
Data set [4] deals with Digitaria ciliaris. Nature of the data set: Farming soil treatment test. Conditions: soil surface spray prior to weed growth, 30 days, 30° C. The protocol:
as §11, §12, §13, §9, §5

In data set [5] the test system is Amaranthus retroflexus. Put plainly: Weed foliar treatment test (Test 3, 1.0 to 2.0 leaf stage). Conditions: foliar spray at 1.0 to 2.0 leaf stage of Digitaria ciliaris, 3 weeks, 25° C. The protocol: (§14) 3. Weed Foliar Treatment Test
(§15) Soil was filled into a 1/6000 are pot followed by seeding with Digitaria ciliaris, Chenopodium album and Amaranthus retroflexus, covering with soil, and cultivating in a glass greenhouse at an average atmospheric temperature of 25° C.
(§16) Wettable powders of Target Compound (I) shown in Table 1 prepared in compliance with the preparation examples were diluted with water to the prescribed amount of chemical and uniformly sprayed onto the weeds using 150 liters of sprayed water per 10 are when Digitaria ciliaris had grown to the 1.0 to 2.0 leaf stage.
(§17) After treating for 3 weeks in a glass greenhouse at an average atmospheric temperature of 25° C., the herbicidal efficacy thereof was investigated.
as §5

Data set [6] concerns Chenopodium album. Described as above. Conditions: foliar spray at 1.0 to 2.0 leaf stage of Digitaria ciliaris, 3 weeks, 25° C. As to the method: as §14, §15, §16, §17, §5
Data set [7] relates to Digitaria ciliaris. The data set is described as above. Conditions: foliar spray at 1.0 to 2.0 leaf stage of Digitaria ciliaris, 3 weeks, 25° C. The protocol: as §14, §15, §16, §17, §5

In the case of `N#Cc1cnn(-c2nn3c(c2Cl)CCCC3)c1NC(=O)CCC1CC=CCC1` (stereo not shown) [Compound 31], in the data set on Digitaria ciliaris [1], the “herbicidal efficacy, Digitaria ciliaris” value is reported as 10 (10: 100%). For the same compound, the “herbicidal efficacy, Galinsoga parviflora” value in the data set with Galinsoga parviflora is reported as 10 (10: 100%).

Consider `O=C(Nc1c([N+](=O)[O-])cnn1-c1nn2c(c1Cl)CCCC2)C1CC1` [Compound 2], for which the “herbicidal efficacy, Echinochloa crus-galli” value with Echinochloa crus-galli (1g a.i./10a) and with Echinochloa crus-galli (5g a.i./10a) was 10 (10: 100%) each time. Further, the “herbicidal efficacy, Monochoria vaginalis” value in the data set on Monochoria vaginalis (1g a.i./10a) and in the data set on Monochoria vaginalis (5g a.i./10a) was 10 (10: 100%) in each case. Besides, the “herbicidal efficacy, Scirpus juncoides” value in the data set with Scirpus juncoides (1g a.i./10a) and with Scirpus juncoides (5g a.i./10a) was 9 (9: 90% to less than 100%) throughout. The “phytotoxicity, Oryza sativa” value in the data set on Oryza sativa (1g a.i./10a) and with Oryza sativa (5g a.i./10a) was 1 (1: 10% to less than 20%) each time. The “herbicidal efficacy, Amaranthus retroflexus” value with Amaranthus retroflexus [2] (5g a.i./10a), with Amaranthus retroflexus [2] (10g a.i./10a), with Amaranthus retroflexus [5] (5g a.i./10a) and in the data set on Amaranthus retroflexus [5] (10g a.i./10a) was 10 (10: 100%) each time. Besides, the “herbicidal efficacy, Chenopodium album” value in the data set on Chenopodium album [3] (5g a.i./10a) is reported as 9 (9: 90% to less than 100%); in the data set on Chenopodium album [3] (10g a.i./10a) it was 9 (9: 90% to less than 100%); in the data set with Chenopodium album [6] (5g a.i./10a) it was 10 (10: 100%); in the data set with Chenopodium album [6] (10g a.i./10a), 10 (10: 100%). In addition, the “herbicidal efficacy, Digitaria ciliaris” value with Digitaria ciliaris [4] (5g a.i./10a) was 9 (9: 90% to less than 100%); with Digitaria ciliaris [4] (10g a.i./10a) it was 9 (9: 90% to less than 100%); in the data set with Digitaria ciliaris [7] (5g a.i./10a), 10 (10: 100%); in the data set with Digitaria ciliaris [7] (10g a.i./10a), 10 (10: 100%); with Digitaria ciliaris [1], 10 (10: 100%). Besides, the “herbicidal efficacy, Galinsoga parviflora” value in the data set on Galinsoga parviflora is given as 10 (10: 100%).

With `N#Cc1cnn(-c2nn3c(c2Cl)CCCC3)c1NC(=O)C1CC1` [Control agent 4.190, reference compound], the “herbicidal efficacy, Echinochloa crus-galli” value in the data set with Echinochloa crus-galli (1g a.i./10a) and with Echinochloa crus-galli (5g a.i./10a) was 6 (6: 60% to less than 70%) in each case. The “herbicidal efficacy, Monochoria vaginalis” value in the data set on Monochoria vaginalis (1g a.i./10a) is given as 4 (4: 40% to less than 50%); in the data set on Monochoria vaginalis (5g a.i./10a), 5 (5: 50% to less than 60%). Further, the “herbicidal efficacy, Scirpus juncoides” value was 4 (4: 40% to less than 50%) with Scirpus juncoides (1g a.i./10a) and 5 (5: 50% to less than 60%) with Scirpus juncoides (5g a.i./10a). Further, the “phytotoxicity, Oryza sativa” value in the data set with Oryza sativa (1g a.i./10a) is 8 (8: 80% to less than 90%); in the data set on Oryza sativa (5g a.i./10a), 9 (9: 90% to less than 100%). In addition, the “herbicidal efficacy, Amaranthus retroflexus” value with Amaranthus retroflexus [2] (5g a.i./10a) is 4 (4: 40% to less than 50%); in the data set with Amaranthus retroflexus [2] (10g a.i./10a) it was 4 (4: 40% to less than 50%); with Amaranthus retroflexus [5] (5g a.i./10a) it was 4 (4: 40% to less than 50%); in the data set on Amaranthus retroflexus [5] (10g a.i./10a), 6 (6: 60% to less than 70%). In addition, the “herbicidal efficacy, Chenopodium album” value in the data set on Chenopodium album [3] (5g a.i./10a) is listed as 5 (5: 50% to less than 60%); with Chenopodium album [3] (10g a.i./10a), 6 (6: 60% to less than 70%); in the data set with Chenopodium album [6] (5g a.i./10a), 5 (5: 50% to less than 60%); with Chenopodium album [6] (10g a.i./10a), 6 (6: 60% to less than 70%). Besides, the “herbicidal efficacy, Digitaria ciliaris” value in the data set with Digitaria ciliaris [4] (5g a.i./10a) was 3 (3: 30% to less than 40%); with Digitaria ciliaris [4] (10g a.i./10a), 4 (4: 40% to less than 50%); in the data set with Digitaria ciliaris [7] (5g a.i./10a), 5 (5: 50% to less than 60%); in the data set on Digitaria ciliaris [7] (10g a.i./10a), 6 (6: 60% to less than 70%); with Digitaria ciliaris [1], 2 (2: 20% to less than 30%). In addition, in the data set with Galinsoga parviflora, the “herbicidal efficacy, Galinsoga parviflora” value is on record as 4 (4: 40% to less than 50%).

Regarding `CN(C(=O)CC1CC1)c1c(C#N)cnn1-c1nn2c(c1Cl)CCCC2` [Compound 1, Methyl N-(1-(3-chloro-4,5,6,7-tetrahydropyrazolo[1,5-a]pyridin-2-yl)4-cyanopyrazol-5-yl)-2-cyclopropyl Acetoamide], the “herbicidal efficacy, Amaranthus retroflexus” value with Amaranthus retroflexus [2] (5g a.i./10a) and in the data set on Amaranthus retroflexus [2] (10g a.i./10a) was 10 (10: 100%) throughout. Moreover, the “herbicidal efficacy, Chenopodium album” value with Chenopodium album [3] (5g a.i./10a) and with Chenopodium album [3] (10g a.i./10a) was 10 (10: 100%) each time. Further, the “herbicidal efficacy, Digitaria ciliaris” value is recorded as 9 (9: 90% to less than 100%) in the data set with Digitaria ciliaris [4] (5g a.i./10a) and 10 (10: 100%) in the data set with Digitaria ciliaris [4] (10g a.i./10a).

`N#Cc1cnn(-c2nn3c(c2Cl)CCCC3)c1NC(=O)C1CCCCC1` [Compound 7]: the “herbicidal efficacy, Digitaria ciliaris” value with Digitaria ciliaris [1] is 10 (10: 100%). For the same compound, in the data set with Galinsoga parviflora, the “herbicidal efficacy, Galinsoga parviflora” value is 10 (10: 100%).

In the case of `N#Cc1cnn(-c2nn3c(c2Cl)CCCC3)c1NC(=O)CC1CCCC1` [Compound 29], the “herbicidal efficacy, Digitaria ciliaris” value with Digitaria ciliaris [1] is given as 10 (10: 100%). Moreover, in the data set with Galinsoga parviflora, the “herbicidal efficacy, Galinsoga parviflora” value is 10 (10: 100%).

In the case of `CC1(C(=O)Nc2c(C#N)cnn2-c2nn3c(c2Cl)CCCC3)CC1` [Compound 3], the “herbicidal efficacy, Digitaria ciliaris” value in the data set with Digitaria ciliaris [1] was 10 (10: 100%). Moreover, the “herbicidal efficacy, Galinsoga parviflora” value in the data set with Galinsoga parviflora was 10 (10: 100%).

On to `N#Cc1cnn(-c2nn3c(c2Cl)CCCC3)c1NC(=O)C1CCC1` [Compound 4], for which the “herbicidal efficacy, Digitaria ciliaris” value in the data set on Digitaria ciliaris [1] is reported as 10 (10: 100%). Besides, the “herbicidal efficacy, Galinsoga parviflora” value in the data set with Galinsoga parviflora is on record as 10 (10: 100%).

Turning to `N#Cc1cnn(-c2nn3c(c2Cl)CCCC3)c1NC(=O)CCC1CCCC1` [Compound 30], the “herbicidal efficacy, Digitaria ciliaris” value in the data set on Digitaria ciliaris [1] is 10 (10: 100%). Also, in the data set with Galinsoga parviflora, the “herbicidal efficacy, Galinsoga parviflora” value is on record as 10 (10: 100%).

For `N#Cc1cnn(-c2nn3c(c2Cl)CCCC3)c1NC(=O)C1CCCC1` [Compound 5], the “herbicidal efficacy, Digitaria ciliaris” value in the data set with Digitaria ciliaris [1] is on record as 10 (10: 100%). For the same compound, the “herbicidal efficacy, Galinsoga parviflora” value in the data set with Galinsoga parviflora is given as 10 (10: 100%).
